The target in the first assay is LRRK2 (Homo sapiens (Human), UniProt Q5S007, G2019S). Put plainly: In Vitro LRRK2 LabChip Assay. In kind it is biochemical. The following applies: Table 4. In short, it runs like this:
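Phosphorylated and unphosphorylated peptides were separated by capillary electrophoresis and quantified by fluorescence. Ki came from a tight-binding equation, given in μM.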
Chain of LRRK2 (Q5S007 970-2527 G2019S limits assumed): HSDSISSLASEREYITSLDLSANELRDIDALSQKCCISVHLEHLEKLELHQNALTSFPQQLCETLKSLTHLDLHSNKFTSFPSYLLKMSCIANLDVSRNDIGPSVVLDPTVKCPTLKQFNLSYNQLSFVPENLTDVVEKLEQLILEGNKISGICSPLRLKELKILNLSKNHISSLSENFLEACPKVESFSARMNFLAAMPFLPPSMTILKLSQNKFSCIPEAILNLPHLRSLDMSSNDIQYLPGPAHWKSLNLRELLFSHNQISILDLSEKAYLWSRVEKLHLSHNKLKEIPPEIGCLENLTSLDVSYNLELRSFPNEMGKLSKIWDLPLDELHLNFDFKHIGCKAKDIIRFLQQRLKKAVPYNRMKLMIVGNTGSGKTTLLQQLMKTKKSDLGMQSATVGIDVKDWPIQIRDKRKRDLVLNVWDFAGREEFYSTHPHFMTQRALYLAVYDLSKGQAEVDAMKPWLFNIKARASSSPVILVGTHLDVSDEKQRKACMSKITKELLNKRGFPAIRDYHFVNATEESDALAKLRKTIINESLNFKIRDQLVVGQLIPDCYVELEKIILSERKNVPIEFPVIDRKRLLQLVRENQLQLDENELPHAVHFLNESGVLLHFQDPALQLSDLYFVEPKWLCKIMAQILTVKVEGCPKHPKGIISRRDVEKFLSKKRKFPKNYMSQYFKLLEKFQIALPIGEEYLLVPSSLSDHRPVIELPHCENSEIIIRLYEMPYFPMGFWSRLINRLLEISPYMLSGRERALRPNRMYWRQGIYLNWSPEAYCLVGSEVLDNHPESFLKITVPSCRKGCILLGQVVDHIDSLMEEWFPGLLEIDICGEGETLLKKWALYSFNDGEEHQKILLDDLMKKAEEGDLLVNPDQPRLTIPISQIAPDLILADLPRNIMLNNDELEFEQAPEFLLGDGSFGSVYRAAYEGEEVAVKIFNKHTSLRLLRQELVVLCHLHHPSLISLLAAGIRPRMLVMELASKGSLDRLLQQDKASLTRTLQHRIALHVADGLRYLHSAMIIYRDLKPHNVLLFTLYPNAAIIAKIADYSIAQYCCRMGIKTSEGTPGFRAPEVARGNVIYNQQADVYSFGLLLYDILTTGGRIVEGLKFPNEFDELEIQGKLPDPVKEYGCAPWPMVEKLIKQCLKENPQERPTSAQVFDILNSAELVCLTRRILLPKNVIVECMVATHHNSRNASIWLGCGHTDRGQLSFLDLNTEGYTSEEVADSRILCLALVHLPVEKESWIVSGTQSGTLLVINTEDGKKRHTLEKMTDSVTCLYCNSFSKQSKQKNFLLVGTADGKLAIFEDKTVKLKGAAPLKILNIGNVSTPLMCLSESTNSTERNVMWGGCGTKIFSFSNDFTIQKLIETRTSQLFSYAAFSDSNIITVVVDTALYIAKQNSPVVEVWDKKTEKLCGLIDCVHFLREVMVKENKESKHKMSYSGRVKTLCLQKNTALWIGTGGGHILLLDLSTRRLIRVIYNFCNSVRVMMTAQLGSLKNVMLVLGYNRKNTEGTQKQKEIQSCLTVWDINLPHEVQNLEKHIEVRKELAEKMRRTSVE
For the compound `CNc1nc(Nc2cc(OC)c(C(=O)N(C)C)cc2Cl)ncc1C(F)(F)F` [Example 158, 5-Chloro-2-methoxy-N,N-dimethyl-4-(4-methylamino-5-trifluoromethyl-pyrimidin-2-ylamino)-benzamide], the Ki – broadly, a measure of affinity in units of concentration, obtained from inhibition or displacement – is 6.8 nM.

Consider `CNC(=O)c1cc(OC)c(Nc2ncc(C(F)(F)F)c(NC)n2)cc1F` [Example 180, 2-Fluoro-5-methoxy-N-methyl-4-(4-methylamino-5-trifluoromethyl-pyrimidin-2-ylamino)-benzamide], for which affinity was put at a Ki of 4.7 nM.

Take `CNc1nc(Nc2cc(OC)c(C(=O)NC3CC3)cc2Cl)ncc1C(F)(F)F` [Example 154, 5-Chloro-N-cyclopropyl-2-methoxy-4-(4-methylamino-5-trifluoromethyl-pyrimidin-2-ylamino)-benzamide]: affinity was put at a Ki of 5.2 nM.

For the compound `COc1cc(C(=O)N2CCOCC2)ccc1Nc1ncc(Cl)c(NCC2CCOC2)n1` (centres unmarked) [Example 93, (4-{5-Chloro-4-[(tetrahydro-furan-3-ylmethyl)-amino]-pyrimidin-2-ylamino}-3-methoxy-phenyl)-morpholin-4-yl-methanone], the Ki came out at 14.1 nM.

`CNc1nc(Nc2ccc(C(=O)N3CC[C@H](F)C3)cc2OC)ncc1C#N` [Example 196, 2-[4-((S)-3-Fluoro-pyrrolidine-1-carbonyl)-2-methoxy-phenylamino]-4-methylamino-pyrimidine-5-carbonitrile] came in with a Ki of 6 nM.

As to `CNc1nc(Nc2cc(OC)c(C(=O)N3CCNCC3)cc2Cl)ncc1C(F)(F)F` [Example 176, [5-Chloro-2-methoxy-4-(4-methylamino-5-trifluoromethyl-pyrimidin-2-ylamino)-phenyl]-piperazin-1-yl-methanone], the Ki was 4.1 nM.

Compound `CNc1nc(Nc2ccc(C(=O)N3CC4CC3CO4)cc2OC)ncc1Cl` (centres unmarked) [Example 62, [4-(5-Chloro-4-methylamino-pyrimidin-2-ylamino)-3-methoxy-phenyl]-(2-oxa-5-aza-bicyclo[2.2.1]hept-5-yl)-methanone] returned an inhibitory constant (Ki) of 4.5 nM.

Take `CCNc1nc(Nc2ccc(C(=O)N3CCOCC3)c(F)c2OC)ncc1C(F)(F)F` [Example 241, (4-(4-(ethylamino)-5-(trifluoromethyl)pyrimidin-2-ylamino)-2-fluoro-3-methoxyphenyl) (morpholino)methanone]: the Ki stood at 1.8 nM.

With `COc1cc(C(=O)N2CCOCC2)ccc1Nc1ncc(Cl)c(OC(C)C)n1` [Example 59, [4-(5-Chloro-4-isopropoxy-pyrimidin-2-ylamino)-3-methoxy-phenyl]-morpholin-4-yl-methanone], the inhibitory constant (Ki) came out at 13 nM.

The compound `CNc1nc(Nc2cc(OC)c(CC(=O)N3CCOCC3)cc2OC)ncc1C(F)(F)F` [Example 227, 2-[2,5-Dimethoxy-4-(4-methylamino-5-trifluoromethyl-pyrimidin-2-ylamino)-phenyl]-1-morpholin-4-yl-ethanone] returned a Ki of 3.7 nM.

On to `CNc1nc(Nc2ccc(C(=O)N3CCOCC3)cc2Cl)ncc1Cl` [Example 115, [3-Chloro-4-(5-chloro-4-methylamino-pyrimidin-2-ylamino)-phenyl]-morpholin-4-yl-methanone], for which the Ki was found to be 6 nM. Compared with the last compound, the Ki is about 1.6-fold higher.

Compound `COc1cc(CC(=O)N2CCOCC2)ccc1Nc1ncc(Br)c(OC)n1` [Example 226, 2-[4-(5-Bromo-4-methoxy-pyrimidin-2-ylamino)-3-methoxy-phenyl]-1-morpholin-4-yl-ethanone] displayed an inhibitory constant (Ki) of 5.6 nM.

For the compound `CNc1nc(Nc2ccc(C(=O)N3CCN(C4COC4)CC3)cc2OC)ncc1Br` [Example 78, [4-(5-Bromo-4-methylamino-pyrimidin-2-ylamino)-3-methoxy-phenyl]-(4-oxetan-3-yl-piperazin-1-yl)-methanone], the Ki was determined as 8 nM. The Ki values of the last two compounds are within 1.5-fold of each other.

`COc1cc(C(=O)N2CCOCC2)ccc1Nc1ncc(Cl)c(NC2CCC2)n1` [Example 81, [4-(5-Chloro-4-cyclobutylamino-pyrimidin-2-ylamino)-3-methoxy-phenyl]-morpholin-4-yl-methanone] yielded an inhibition constant Ki of 1.5 nM.

`CNc1nc(Nc2ccc(C(=O)NC3CC3)cc2OC)ncc1Cl` [Example 5, 4-(5-Chloro-4-methylamino-pyrimidin-2-ylamino)-N-cyclopropyl-3-methoxy-benzamide] came in with a Ki of 2.4 nM. Compared with the last compound, the Ki is about 1.6-fold higher.

The compound `CNc1nc(Nc2ccc(C(=O)N3CC(F)(F)OC(F)(F)C3)cc2OC)ncc1C#N` [Example 191, 2-(2-methoxy-4-(2,2,6,6-tetrafluoromorpholine-4-carbonyl)phenylamino)-4-(methylamino) pyrimidine-5-carbonitrile] returned an inhibition constant Ki of 20.8 nM.

In turn, `CCNc1nc(Nc2cc(OC)c(C(=O)N3CCOCC3)cc2Cl)ncc1C(F)(F)F` [Example 147, [5-Chloro-4-(4-ethylamino-5-trifluoromethyl-pyrimidin-2-ylamino)-2-methoxy-phenyl]-morpholin-4-yl-methanone] returned an inhibition constant (Ki) of 3.4 nM.

`CCOc1cc(C(=O)N2CCOCC2)ccc1Nc1ncc(C(F)(F)F)c(NC)n1` [Example 216, [3-Ethoxy-4-(4-methylamino-5-trifluoromethyl-pyrimidin-2-ylamino)-phenyl]-morpholin-4-yl-methanone]: the affinity, expressed as Ki, was 4.2 nM.

In turn, `CNc1nc(Nc2ccc(C(=O)NC(C)C)cc2OC)ncc1C#N` [Example 200, 4-(5-Cyano-4-methylamino-pyrimidin-2-ylamino)-N-isopropyl-3-methoxy-benzamide] registered an inhibition constant (Ki) of 4.4 nM.

Still in this assay, the particulars now being: Table 5.
In turn, `CCNc1nc(Nc2cc(OC)c(C(=O)N3CCOCC3)cc2Cl)ncc1Cl` [Example 258, [5-Chloro-4-(5-chloro-4-ethylamino-pyrimidin-2-ylamino)-2-methoxy-phenyl]-morpholin-4-yl-methanone] yielded a Ki of 5 nM.

Still in this assay, the particulars now being: Table 6.
For the compound `COc1cc(C(=O)N2CCOCC2)c(Cl)cc1Nc1ncc(Br)c(OC)n1` [Example 294, [4-(5-Bromo-4-methoxy-pyrimidin-2-ylamino)-2-chloro-5-methoxy-phenyl]-morpholin-4-yl-methanone], the inhibition constant (Ki) is 9.4 nM.

As for `CCNc1nc(Nc2ccc(C(=O)N3CCOCC3)cc2OC(C)C)ncc1C(F)(F)F` [Example 310, (4-(4-(ethylamino)-5-(trifluoromethyl)pyrimidin-2-yl-amino)-3-isopropoxyphenyl) (morpholino) methanone], the Ki is 4.5 nM. This Ki lies about 2.1-fold lower than the previous one.

Take `CCNc1nc(Nc2cc(F)c(C(=O)N(CC)CCOC)cc2OC)ncc1C(F)(F)F` [Example 307, N-Ethyl-4-(4-ethylamino-5-trifluoromethyl-pyrimidin-2-ylamino)-2-fluoro-5-methoxy-N-(2-methoxy-ethyl)-benzamide]: the inhibition constant Ki is 1.4 nM.

In turn, `COc1cc(C(=O)N2CCCC2)ccc1Nc1ncc(Cl)c(OC)n1` [Example 299, (4-(5-chloro-4-methoxypyrimidin-2-ylamino)-3-methoxyphenyl) (pyrrolidin-1-yl)methanone] gave a Ki of 6 nM.

Turning to `CNc1nc(Nc2cc(Cl)c(C(=O)N3CCOCC3)cc2OC)ncc1C(F)(F)F` [Example 292, [2-Chloro-5-methoxy-4-(4-methylamino-5-trifluoromethyl-pyrimidin-2-ylamino)-phenyl]-morpholin-4-yl-methanone], the affinity, expressed as Ki, was 2 nM. Compared with the last compound, the Ki is about 3-fold lower.

Staying with this assay, now noted: Table 7.
Consider `CNc1nc(Nc2cc(F)c(C(=O)N3C[C@@H](C)O[C@@H](C)C3)cc2OC)ncc1C#N` [Example 318, 2-[4-((2R,6S)-2,6-Dimethyl-morpholine-4-carbonyl)-5-fluoro-2-methoxy-phenylamino]-4-methylamino-pyrimidine-5-carbonitrile], for which the inhibition constant Ki came out at 36.8 nM.

These data come from US8802674B2, “Aminopyrimidine derivatives as LRRK2 modulators” (Genentech, Inc., priority 2011, dated 2014).
